The results in this text go back to patent publication US4837218A, “Alkylated bicycloalkaneamines for treatment of neurotoxic injury” (Washington University, priority 1987, dated 1989).

The test system of assay [1] is NMA (200 μM) neurotoxicity in chick embryo retina. The assay can be described thus: NMDA/KA Antagonist Assay: prevention of NMA neurotoxicity in chick embryo retina. The format is cell-based. The following applies: Gallus gallus, 0.5 h, 15-day old chick embryo retina, 30 min at 37° C., criterion: complete prevention of toxicity in all specimens, read-out: concentration providing total protection against toxicity of NMA. The procedure:
(§1) A 15-day old chick embryo retina, incubated for 30 min. in a balanced salt solution (BSS) containing 1 mM Glu, developed a full lesion resembling that described in the immature mouse retina following s.c. administration of Glu. Other excitotoxin agonists also produce acute lesions within 30 min., each agent being effective at a concentration proportional to its known excitatory and toxic potencies. The pattern of cellular degeneration is restricted in each case to the ganglion cell, inner plexiform and inner nuclear layers, but within these areas certain agonists induce different patterns of degeneration, the differences being most pronounced between NMA and KA. Two agonists were employed in the present test, each at a concentration established previously to be the lowest concentration required to consistently cause a fully-developed retinal lesion: KA (25 μM) and NMA (200 μM). Mecamylamine was tested at various concentrations for its ability to prevent KA or NMA neurotoxicity. Although partial blocking was sometimes observed for antagonist concentrations below the threshold for complete protection, the criterion used for comparing agents for antagonist potency was the concentration required to completely prevent KA or NMA from exerting any toxic activity in any specimen (n>6) studied at that concentration. […]

Assay [2] has as its system KA (25 μM) neurotoxicity in chick embryo retina. The assay can be described thus: NMDA/KA Antagonist Assay: prevention of KA neurotoxicity in chick embryo retina. It is filed as cell-based. As to conditions: 15-day old chick embryo retina, 30 min at 37° C., tested at various concentrations. Here is the method: as §1
The target of assay [3] is PCP receptor (binding of the PCP ligand 3H-TCP). The assay can be described thus: Receptor Binding Assay: inhibition of 3H-TCP binding in frozen brain sections. As to conditions: frozen brain sections (10 microns), 20 nM 3H-TCP, 45 min at 4° C., Scatchard/Rosenthal analysis. Here is the method: Prevention of the neurodegenerative consequences associated with conditions of hypoxia or ischemia may be accomplished with administration of a compound of Formula I. In particular, the compound 3-methylamino-2,2,3-trimethylbicyclo[2.2.1]heptane (mecamylamine) was evaluated in biological assays designed to detect compounds capable of inhibiting hypoxia/ischemia-induced neuronal degeneration. Mecamylamine was evaluated for its ability to inhibit the binding of the PCP ligand tritiated 1-[1-(2-thienyl)cyclohexyl]piperidine [^3 H-TCP].
For receptor binding, frozen brain sections (10 microns) were incubated in […] tris acetate (pH 7.25) containing 0.5 mM magnesium acetate and 20 nM ^3 H-TCP for 45 min. at 4° C. Non-specific binding was assessed with 200 μM PCP. Inhibition of ^3 H-TCP binding was studied by including potential inhibitors in the ^3 H-TCP incubation at concentrations from 10 nM to 1 mM. Dissociation and inhibition constants were calculated by Scatchard/Rosenthal analysis of data obtained by liquid scintillation counting of whole sections.

The structures appear in SMILES notation.

One may read the Ki as the equilibrium dissociation constant of an inhibitor or competing ligand from its target. A low value points to higher affinity. As to `CNC1(C)C2CCC(C2)C1(C)C` (stereo not drawn) [mecamylamine, 3-(methylamino)-2,2,3-trimethylbicyclo[2.2.1]heptane], the EC100 in assay [1] is 100 µM. In addition, the “blocking of KA toxicity” value in assay [2] is “not observed”. Also, the Ki in assay [3] stood at 122 µM.
